Assay results published in ChEMBL document CHEMBL1159347, “A novel constituent from Rollinia mucosa, rollicosin, and a new approach to develop annonaceous acetogenins as potential antitumor agents” (J Nat Prod, 2003).
≈ marks a conversion by molar mass, not a printed value.

Experiments:
HepG2 = assay: Cytotoxicity against human HepG2 cells; assay type: functional, cell-based
[1] = Cytotoxicity against human HepG2(2.2.15) cells; assay type: functional, cell-based

Compound | IC50 (HepG2) [µg/mL] | IC50 [1] [µg/mL]
C[C@H]1C=C(C[C@H](O)CCCCCCCCCC[C@@H](O)[C@H]2CCC(=O)O2)C(=O)O1 [ROLLICOSIN] | 0.1 (≈ 0.252 µM) | 0.021 (≈ 0.053 µM)
COc1cccc2c1C(=O)c1c(O)c3c(c(O)c1C2=O)C[C@@](O)(C(=O)CO)C[C@@H]3O[C@H]1C[C@H](N)[C@H](O)[C@H](C)O1 [DOXORUBICIN] | – | 0.45 (≈ 0.828 µM)
